Data: ChEMBL document CHEMBL1123515, “Bioisosteric prototype design of biaryl imidazolyl and triazolyl competitive histamine H2-receptor antagonists” (1986)

Columns and labels:
Canis familiaris [1] = experiment: Maximum percent inhibition of acid output in penta gastrin-stimulated Heidenhain pouch dogs at a dose of 1 mg/kg, given intravenously (iv).; format: functional; conditions: Canis lupus familiaris
Canis familiaris [2] = experiment: Effective dose on oral administration was evaluated for the inhibition of acid output in penta gastrin stimulated Heidenhain pouch dogs; format: functional; conditions: Canis lupus familiaris
Canis familiaris [3] = experiment: Maximum percent inhibition of acid output in penta gastrin-stimulated Heidenhain pouch dogs at a dose of 10 mg/kg, given intravenously (iv).; format: functional; conditions: Canis lupus familiaris
Canis familiaris [4] = experiment: Maximum percent inhibition of acid output in penta gastrin-stimulated Heidenhain pouch dogs at a dose of 5 mg/kg, given intravenously (iv).; format: functional; conditions: Canis lupus familiaris
[5] = target: Histamine H2 receptor (Cavia porcellus) (UniProt P47747); experiment: Histamine H2 receptor antagonistic activity was evaluated in guinea pig atrium.; format: functional, tissue-based; conditions: Cardiac atrium
Canis familiaris [6] = experiment: Maximum percent inhibition of acid output in penta gastrin-stimulated Heidenhain pouch dogs at a dose of 7 mg/kg, given intravenously (iv).; format: functional; conditions: Canis lupus familiaris
Canis familiaris [7] = experiment: Effective dose on intravenous administration was evaluated for the inhibition of acid output in penta gastrin stimulated Heidenhain pouch dogs; format: functional; conditions: Canis lupus familiaris
Canis familiaris [8] = experiment: Maximum percent inhibition of acid output in penta gastrin-stimulated Heidenhain pouch dogs at a dose of 0.5 mg/kg, given intravenously (iv).; format: functional; conditions: Canis lupus familiaris

Chain of Histamine H2 receptor (Cavia porcellus) (P47747 whole entry): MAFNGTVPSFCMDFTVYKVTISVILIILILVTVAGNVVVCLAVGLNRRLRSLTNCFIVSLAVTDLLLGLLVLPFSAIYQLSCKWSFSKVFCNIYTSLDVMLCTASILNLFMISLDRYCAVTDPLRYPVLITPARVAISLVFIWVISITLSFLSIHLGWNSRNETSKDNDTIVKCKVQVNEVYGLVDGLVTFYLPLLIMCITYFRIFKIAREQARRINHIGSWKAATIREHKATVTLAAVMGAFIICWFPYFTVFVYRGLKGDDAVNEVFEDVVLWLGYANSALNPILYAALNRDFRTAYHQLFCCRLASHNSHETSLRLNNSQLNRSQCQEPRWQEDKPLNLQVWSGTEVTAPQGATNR

CCNc1cc(-c2n[nH]c(CCC/N=C(/S)NC)n2)ccn1
inhibition in vivo at 1 mg/kg (Canis familiaris [1]): 20%

CN/C(=N\CCSCc1nc[nH]c1C)NC#N [CIMETIDINE]
ED50 (Canis familiaris [2]): 1.32 mg/kg
inhibition in vivo at 10 mg/kg (Canis familiaris [3]): 1.02%

CCNc1cc(-c2n[nH]c(CCCC/N=C(/NC)NC#N)n2)ccn1
inhibition in vivo at 10 mg/kg (Canis familiaris [3]): 16%

CCNc1cc(-c2c[nH]c(C/N=C(\NC)NC#N)n2)ccn1
inhibition in vivo at 5 mg/kg (Canis familiaris [4]): 32%

CCNc1cc(-c2n[nH]c(CC/N=C(/NC)NC#N)n2)ccn1
Kb [5]: 1240 nM
inhibition in vivo at 7 mg/kg (Canis familiaris [6]): 0%

CCNc1cc(-c2c[nH]c(CC/N=C(\S)NC)n2)ccn1
Kb [5]: 550 nM
inhibition in vivo at 5 mg/kg (Canis familiaris [4]): 47%

CCNc1cc(-c2c[nH]c(C/N=C(/S)NC)n2)ccn1
inhibition in vivo at 5 mg/kg (Canis familiaris [4]): 54%

N=C(N)Nc1nc(-c2c[nH]cn2)cs1
inhibition in vivo at 1 mg/kg (Canis familiaris [1]): 95%

CCNc1cc(-c2n[nH]c(N)n2)ccn1
ED50 (Canis familiaris [7]): 0.87 mg/kg

CCNc1cc(-c2n[nH]c(CC/N=C(\S)NC)n2)ccn1
Kb [5]: 690 nM
inhibition in vivo at 1 mg/kg (Canis familiaris [1]): 59%

CNC(=C[N+](=O)[O-])NCCSCc1ccc(CN(C)C)o1
Kb [5]: 166 nM

N=C(N)Nc1nc(-c2n[nH]c(N)n2)cs1
inhibition in vivo at 1 mg/kg (Canis familiaris [1]): 58%

CCNc1cc(-c2n[nH]c(C/N=C(/S)NC)n2)ccn1
inhibition in vivo at 10 mg/kg (Canis familiaris [3]): 48%

Cc1n[nH]c(-c2csc(N=C(N)N)n2)n1
inhibition in vivo at 1 mg/kg (Canis familiaris [1]): 50%

CCNc1cc(-c2n[nH]c(C/N=C(\NC)NC#N)n2)ccn1
inhibition in vivo at 10 mg/kg (Canis familiaris [3]): 0%

N=C(N)Nc1nc(-c2c[nH]c(N)n2)cs1
inhibition in vivo at 1 mg/kg (Canis familiaris [1]): 96%

Cc1ncc(-c2csc(N=C(N)N)n2)[nH]1 [ZALTIDINE]
inhibition in vivo at 0.5 mg/kg (Canis familiaris [8]): 90%
ED50 (Canis familiaris [2]): 0.27 mg/kg
Kb [5]: 18 nM

CCNc1cc(-c2n[nH]c(CCCC/N=C(\S)NC)n2)ccn1
inhibition in vivo at 5 mg/kg (Canis familiaris [4]): 27%

C/N=C(\S)NCc1cc(-c2n[nH]c(N)n2)ccn1
inhibition in vivo at 10 mg/kg (Canis familiaris [3]): 19%
